Here are results for 31 compounds from patent US20250320184A1 (SIRONAX LTD., priority 2022, published 2025).

Where only a bound is given, the exact number is not on record here.

The assay deals with T1, SARM1 (50-724) (Homo sapiens, UniProt Q6SZW1).
T1 sequence (Q6SZW1 50-724): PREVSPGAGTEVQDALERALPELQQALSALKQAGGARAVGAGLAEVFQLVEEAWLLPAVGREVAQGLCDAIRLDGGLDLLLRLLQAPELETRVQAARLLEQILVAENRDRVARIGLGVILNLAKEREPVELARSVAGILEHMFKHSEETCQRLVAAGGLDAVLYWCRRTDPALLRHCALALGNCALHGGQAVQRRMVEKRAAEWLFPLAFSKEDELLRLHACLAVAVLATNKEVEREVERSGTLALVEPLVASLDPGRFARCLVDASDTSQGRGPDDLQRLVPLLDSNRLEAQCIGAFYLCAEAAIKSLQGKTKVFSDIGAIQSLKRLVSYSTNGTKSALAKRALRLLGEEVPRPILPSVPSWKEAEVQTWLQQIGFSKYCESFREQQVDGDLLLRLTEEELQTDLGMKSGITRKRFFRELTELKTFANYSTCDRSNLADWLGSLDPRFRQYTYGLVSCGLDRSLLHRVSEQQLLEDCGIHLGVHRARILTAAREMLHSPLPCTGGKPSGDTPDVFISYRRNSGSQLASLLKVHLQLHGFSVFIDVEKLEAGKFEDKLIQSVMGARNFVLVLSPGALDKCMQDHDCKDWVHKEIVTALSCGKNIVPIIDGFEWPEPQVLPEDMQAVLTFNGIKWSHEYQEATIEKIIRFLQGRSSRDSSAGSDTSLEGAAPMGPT
Briefly: biochemical.

Method: An enzymatic assay was performed in a 384-well plate using Dulbecco's phosphate-buffered saline (PBS) as the reaction buffer. […] The reaction was initiated by adding a mixture of 200 μM nicotinamide mononucleotide (NMN) as activator and 100 μM NAD^+ as substrate. After 1 h of incubation at room temperature, the reaction was terminated with 10 times volume of 70% acetonitrile, then centrifuged at 3800 rpm for 10 min.

Consider `CC1(C)c2ccc(NS(=O)(=O)c3cccc(Cl)c3Cl)cc2C(=O)N1CC(N)=O` [Compound 289, 2-(5-((2,3-dichlorophenyl)sulfonamido)-1,1-dimethyl-3-oxoisoindolin-2-yl)acetamide], for which the IC50 (commonly the concentration needed to halve the response being measured) was < 100 nM.

The compound `CC(Nc1ccc2cccnc2c1)c1cccc(Cl)c1Cl` (racemic) [Example 129, N-(1-(2,3-dichlorophenyl)ethyl)quinolin-7-amine] gave an IC50 of 500 to 1000 nM.

For the compound `CN1C(=O)C(C)(C)c2ccc(NS(=O)(=O)c3cccc(Cl)c3Cl)cc21` [Compound 211, 2,3-dichloro-N-(1,3,3-trimethyl-2-oxoindolin-6-yl)benzenesulfonamide], the IC50 was < 100 nM.

Regarding `CC1(C)CC(C#N)c2cc(NS(=O)(=O)c3cccc(Cl)c3Cl)ccc21` (racemic) [Compound 298, 2,3-dichloro-N-(3-cyano-1,1-dimethyl-2,3-dihydro-1H-inden-5-yl)benzenesulfonamide], the IC50 was < 100 nM. To `CCC(Nc1ccc2c(Cl)n[nH]c(=O)c2c1)c1nc(Cl)c(Cl)s1` (racemic) [Example 254, 4-chloro-7-[1-(4,5-dichlorothiazol-2-yl)propylamino]-2H-phthalazin-1-one] belongs < 100 nM; to `C[C@H](Nc1ccc2c(c1)NC(=O)C2(C)C)c1nc(Cl)c(Cl)s1` (single isomer, unassigned) [Compound 234A], > 1000 nM; to `Cc1c(F)cccc1S(=O)(=O)Nc1ccc2c(c1)CC(=O)NC2` [Compound 7, 3-fluoro-2-methyl-N-(3-oxo-1,2,3,4-tetrahydroisoquinolin-6-yl)benzenesulfonamide], > 1000 nM. Regarding `CC1(C)C(=O)N(CC(=O)NCCO)c2cc(NS(=O)(=O)c3cccc(Cl)c3Cl)ccc21` [Example 287, 2-(6-((2,3-dichlorophenyl)sulfonamido)-3,3-dimethyl-2-oxoindolin-1-yl)-N-(2-hydroxyethyl)acetamide], the half-maximal inhibitory concentration (IC50) was < 100 nM. For `Cc1c(Br)cccc1S(=O)(=O)Nc1ccc2cc[nH]c(=O)c2c1` [Compound 191, 3-bromo-2-methyl-N-(1-oxo-1,2-dihydroisoquinolin-7-yl)benzenesulfonamide] the value was < 100 nM; for `CC1Cc2ccc(NS(=O)(=O)c3cccc(Cl)c3Cl)cc2NC1=O` (racemic) [Compound 269, 2,3-dichloro-N-(3-methyl-2-oxo-3,4-dihydro-1H-quinolin-7-yl)benzenesulfonamide], < 100 nM; for `N#CCn1ccc2ccc(NS(=O)(=O)c3cccc(Cl)c3Cl)cc2c1=O` [Compound 80, 2,3-dichloro-N-(2-(cyanomethyl)-1-oxo-1,2-dihydroisoquinolin-7-yl)benzenesulfonamide], 100 to 500 nM. To `CC(Nc1ccc2ccn(Cc3ccccc3)c(=O)c2c1)c1cccc(Cl)c1Cl` (racemic) [Example 142, 2-benzyl-7-((1-(2,3-dichlorophenyl)ethyl)amino)isoquinolin-1(2H)-one] belongs 500 to 1000 nM; to `Cc1ccc(F)cc1C(C)Nc1ccc2c(c1)C(=O)NCC2` (racemic) [Example 105, 7-((1-(5-fluoro-2-methylphenyl)ethyl)amino)-3,4-dihydroisoquinolin-1(2H)-one], 100 to 500 nM; to `CC(Nc1ccc2cc[nH]c(=O)c2c1)c1cc(Cl)ccc1Cl` (racemic) [Example 132, 7-((1-(2,5-dichlorophenyl)ethyl)amino)isoquinolin-1(2H)-one], < 100 nM. To `Cc1sc(C(C)Nc2ccc3c(C)n(CC(N)=O)nc3c2)nc1Cl` (single isomer, unassigned) [Compound 380] belongs < 100 nM; to `CCC(Nc1ccc2c(c1)C(=O)NCC2)c1nccc(Cl)c1Cl` (racemic) [Example 154, 7-((1-(3,4-dichloropyridin-2-yl)propyl)amino)-3,4-dihydroisoquinolin-1(2H)-one], 100 to 500 nM. `CC(Nc1ccc2c(c1)NC(=O)OC2)c1cccc(Cl)c1Cl` (stereo not shown) [Example 181, 7-((1-(2,3-dichlorophenyl)ethyl)amino)-1,4-dihydro-2H-benzo[d][1,3]oxazin-2-one] had an IC50 of 100 to 500 nM.

In turn, `CCC(Nc1ccc2cc[nH]c(=O)c2c1)c1cccc(Cl)c1` (racemic) [Example 126, 7-((1-(3-chlorophenyl)propyl)amino)isoquinolin-1(2H)-one] returned a half-inhibitory concentration (IC50) of 100 to 500 nM.

For the compound `O=S(=O)(Nc1cccc(-c2cnccn2)c1)c1cccc(Cl)c1Cl` [Compound 83, 2,3-dichloro-N-(3-pyrazin-2-ylphenyl)benzenesulfonamide], the IC50 lay within 100 to 500 nM. To `Cc1ccc(S(=O)(=O)Nc2ccc3c(c2)C(=O)NCC3)c(C)c1` [Example 3A, 2,4-dimethyl-N-(1-oxo-1,2,3,4-tetrahydroisoquinolin-7-yl)benzenesulfonamide] belongs > 1000 nM; to `C[C@@H](Nc1ccc2cc[nH]c(=O)c2c1)c1nccc(Cl)c1Cl` (single isomer, unassigned) [Example 194A, (S or R)-7-((1-(3,4-dichloropyridin-2-yl)ethyl)amino)isoquinolin-1(2H)-one], < 100 nM. To `O=c1[nH]ccc2ccc(NS(=O)(=O)c3c(F)ccc(Cl)c3Cl)cc12` [Compound 70, 2,3-dichloro-6-fluoro-N-(1-oxo-1,2-dihydroisoquinolin-7-yl)benzenesulfonamide] belongs < 100 nM; to `CC(Nc1ccc2ccnn2c1)c1cccc(Cl)c1Cl` (racemic) [Example 140, N-(1-(2,3-dichlorophenyl)ethyl)pyrazolo[1,5-a]pyridin-6-amine], 500 to 1000 nM. As to `Cc1n[nH]c(=O)c2cc(NC(C)c3c(Cl)ccc(F)c3Cl)ccc12` (racemic) [Example 222, 7-((1-(2,6-dichloro-3-fluorophenyl)ethyl)amino)-4-methylphthalazin-1(2H)-one], the half-inhibitory concentration (IC50) is < 100 nM. To `CC1CCCN(S(=O)(=O)Nc2ccc3c(c2)C(=O)NCC3)C1` (racemic) [Example 169, 3-methyl-N-(1-oxo-1,2,3,4-tetrahydroisoquinolin-7-yl)piperidine-1-sulfonamide] belongs > 1000 nM; to `CC(Nc1ccc2c(c1)c(C(=O)NCCO)nn2C)c1c(Cl)ccc(F)c1Cl` (racemic) [Compound 282, 5-((1-(2,6-dichloro-3-fluorophenyl)ethyl)amino)-N-(2-hydroxyethyl)-1-methyl-1H-indazol-3-carboxamide], < 100 nM; to `NC(=O)c1cccc2ccc(NS(=O)(=O)c3cccc(Cl)c3Cl)cc12` [Compound 87, 7-((2,3-dichlorophenyl)sulfonamido)-1-naphthamide], 100 to 500 nM. To `Cc1c2ccc(NC(C)c3snc(Cl)c3Cl)cc2nn1CC(N)=O` (single isomer, unassigned) [Compound 341B] belongs > 1000 nM. To `CC1(C)c2ccc(NS(=O)(=O)c3cccc(Cl)c3Cl)cc2C(=O)N1CCO` [Compound 303] belongs 100 to 500 nM; to `Cc1c2ccc(NC(C)(C)c3nc(Cl)c(Cl)s3)cc2nn1CC(N)=O` [Example 360, 2-(6-((2-(4,5-dichlorothiazol-2-yl)propan-2-yl)amino)-3-methyl-2H-indazol-2-yl)acetamide], < 100 nM; to `CC(C(N)=O)c1ccc(NS(=O)(=O)c2cccc(Cl)c2Cl)cc1` (racemic) [Compound 196, 2-(4-((2,3-dichlorophenyl)sulfonamido)phenyl)propanamide], < 100 nM.
